Laboratory results taken from patent US20060276372A1, “Carotenoids, carotenoid analogs, or carotenoid derivatives for the treatment of proliferative disorders” (priority 2005, published 2006).
Read-outs that look alike come from different tables or passages of the source.

Key:
[1] = test system: superoxide anion; test: Direct superoxide anion scavenging by EPR spectroscopy (DEPMPO spin trap), PMA-stimulated isolated human PMNs; type: cell-based
Method: Leukocyte Isolation and Preparation. Human polymorphonuclear leukocytes (PMNs) were isolated from freshly sampled venous blood of a single volunteer by Percoll density gradient centrifugation as described previously. Briefly, each 10 mL of whole blood was mixed with 0.8 mL of 0.1 M EDTA and 25 mL of saline. The diluted blood was then layered over 9 mL of Percoll at a specific density of 1.080 g/mL. After centrifugation at 400×g for 20 min at 20° C., the plasma, mononuclear cell, and Percoll layers were removed. Erythrocytes were subsequently lysed by addition of 18 mL of ice-cold water for 30 s, followed by 2 mL of 10×PIPES buffer (25 mM PIPES, 110 mM NaCl, and 5 mM KCl, titrated to pH 7.4 with NaOH). Cells were then pelleted at 4° C., the supernatant was decanted, and the procedure was repeated. After the second hypotonic cell lysis, cells were washed twice with PAG buffer [PIPES buffer containing 0.003% human serum albumin (HSA) and 0.1% glucose]. Afterward, PMNs were counted by light microscopy on a hemocytometer. The isolation yielded PMNs with a purity of >95%. The final pellet was then suspended in PAG-CM buffer (PAG buffer with 1 mM CaCl2 and 1 mM MgCl2).
EPR Measurements. All EPR measurements were performed using a Bruker ER 300 EPR spectrometer operating at X-band with a TM110 cavity as previously described. The microwave frequency was measured with a Model 575 microwave counter (EIP Microwave, Inc., San Jose, Calif.). To measure superoxide anion (O2) generation from phorbol-ester (PMA)-stimulated PMNs, EPR spin-trapping studies were performed using the spin trap DEPMPO (Oxis, Portland, Oreg.) at 10 mM. 1×10^6 PMNs were stimulated with PMA (1 ng/mL) and loaded into capillary tubes for EPR measurements. To determine the radical scavenging ability of 3 and 9 in aqueous and ethanolic formulations, PMNs were pre-incubated for 5 minutes with test compound, followed by PMA stimulation.
Instrument settings used in the spin-trapping experiments were as follows: modulation amplitude, 0.32 G; time constant, 0.16 s; scan time, 60 s; modulation frequency, 100 kHz; microwave power, 20 milliwatts; and microwave frequency, 9.76 GHz. The samples were placed in a quartz EPR flat cell, and spectra were recorded. The component signals in the spectra were identified and quantified as reported previously.

[2] = test system: 10T1/2 cells; type: cell-based, Mouse; details: for % Inhibition of MCA-induced transformation: 4 week period; for Foci/dish (mean Type II + Type III foci, 24 dishes): 4 week period after MCA
Method: Inhibition of MCA-induced neoplastic transformation in 10T1/2 cells. Cells were initiated with methylcholanthrene (MCA) […] (Sigma, St. Louis, Mo.) in acetone for 24 hours. Potential inhibitors of neoplastic transformation were added 7 days after removal of carcinogen as indicated and were renewed weekly by adding fresh medium supplemented with the appropriate drug for four weeks after removal of the carcinogen. The cultures were fixed and stained as described above. A total of 24 dishes of cells were used per treatment group. Type II and III foci were identified and then quantitated as described in Bertram et al., 1990, which is incorporated herein by reference.
Statistical analysis. Transformation data was analyzed by one-tailed, two-sample t-tests that incorporated unequal variances. The scrape-loading data was analyzed by paired t-tests.

[3] = Determination of aqueous solubility/dispersibility; type: physicochemical
Method: (§1) Determination of aqueous solubility/dispersibility. 30.13 mg of 3 was added to 1 mL of USP-purified water. The sample was rotated for 2 hours, then centrifuged for 5 minutes. After centrifuging, solid was visible in the bottom of the tube. A 125-μL aliquot of the solution was then diluted to 25 mL. The sample was analyzed by UV/Vis spectroscopy at 436 nm, and the absorbance was compared to a standard curve compiled from 4 standards of known concentration. The concentration of the original supernatant was calculated to be 2.85 mg/mL and the absorptivity was 36.94 AU*mL/cm*mg. Slight error may have been introduced by the small size of the original aliquot.
as §1, with “Next, 30.80” for “Determination of aqueous solubility/dispersibility. 30.13”, “9” for “3”, “UViis” for “UV/Vis”, “411” for “436”, “The concentration of the original supernatant was calculated to be 2.85 mg/mL and the absorptivity was 36.94 AU*mL/cm*mg.” left out
Determination of aqueous solubility/dipsersibility of pAST. 23.70 mg of tetrasodium diphosphate astaxanthin was added to 1 ml of USP purified water. The mixture was stirred for 2 hours, and centrifuged for 5 minutes. The solution was diluted in water and analyzed by UV/vis spectroscopy at 480 nm and absorbance was compared to a standard curve compiled from 4 standards of known concentration.

[4] = test system: 10T1/2 cells; test: Gap junctional communication, scrape-loading dye transfer assay; type: cell-based, Mouse; details: 7 days
Method: Gap junctional communication assay. Junctional permeability was assayed by the scrape-loading dye transfer assay essentially as described in El-Fouly et al., 1987, which is incorporated herein by reference. Briefly, confluent cultures of 10T1/2 cells grown in 60 mm dishes were treated with the indicated compounds for 7 days. The treated cells were washed with Ca^+2-free phosphate-buffered saline (PBS). 1.5 ml of Lucifer Yellow CH (Sigma, St. Louis, Mo.) 0.2% in PBS was then added, and linear cuts were made on the monolayer using a surgical scalpel. The cultures were incubated for 2 minutes at 37° C. then rinsed thoroughly with PBS. The cultures were then fixed with 2 ml of 5% formaldehyde in PBS. Images were digitally quantitated by intensity thresholding using the SigmaScan software program (Jandel Scientific, San Rafael, Calif.).

[5] = test system: CX43 protein; test: CX43 protein expression in 10T1/2 cells by Western blotting (Example 1); type: cell-based, Mouse; details: 4 days
Method: Cell lines and culture conditions. Mouse embryonic fibroblast 10T1/2 cells were cultured in Eagle's basal medium with Earle's salts supplemented with 4% fetal calf serum (Atlanta Biologicals, Norcross, Ga.), 25 μg/ml gentamicin sulfate (Sigma, St. Louis, Mo.), and passaged by trypsin/EDTA (Gibco Invitrogen, Carlsbad, Calif.) and maintained at 37° C. in a 5% CO2 atmosphere. The cells were allowed to grow until a monolayer was formed. The confluent cells were treated 7 days after seeding, unless otherwise indicated. dAST was prepared in a formulation of 20% EtOH and sterile water (0.2% final EtOH ) to minimize supramolecular aggregation, and the final concentration of EtOH in culture medium was 0.2%. CTX was dissolved in THF and added to media. TTNPB was dissolved in acetone (Sigma, St. Louis, Mo.) and cultures received a final acetone concentration of 0.1%.
Analysis of CX43 protein expression. Expression of CX43 protein in 10T1/2 cells was assessed by Western blotting. 10T1/2 cell monolayers were treated with the indicated carotenoid derivatives or with retinoids (as a positive control for the modulation of CX43 expression) 7 days after seeding in 100 mm dishes (Fisher Scientific, Pittsburgh, Pa.). Fours days after the drug was added to the cells, the cells were harvested, total cellular protein was isolated and the total protein concentration thereof was determined using a commercially available Protein Assay Reagent kit (Pierce Chemical Co., Rockford, Ill.). 40 μg of total cellular protein was resolved on an SDS-PAGE gel, transferred to a nitrocellulose membrane, and analyzed by Western blotting using the NuPage Western blotting kit (Invitrogen, Carlsbad, Calif.). CX43 was detected using a rabbit polyclonal antibody (Zymed, San Francisco, Calif.) raised against a synthetic polypeptide corresponding to the C-terminal domain common to mouse, human and rat CX43. Equal protein loafing was verified by immunoblotting for GAPDH, the expression of which is unaffected by treatment with retinoids or carotenoids, using a rabbit polyclonal GAPDH antibody was also used (Zymed, San Francisco, Calif.). CX43 and GAPDH immunoreactive bands were visualized by chemiluminescence using an anti-rabbit HRP-conjugated secondary antibody (Pierce Chemical Co., Rockford, Ill.). Images were obtained by exposure to X-ray film as previously described and scanned for digital analysis on the Fluoro-S Imager (Bio-Rad, Richmond, Calif.).

[6] = test system: CX43; test: CX43 plaques by indirect immunofluorescence in 10T1/2 cells; type: cell-based, Mouse; details: 4 days; for CX43 immunoreactive plaques / gap junction assembly: 10^−8 M
Method: Analysis of CX43 protein by indirect immunofluorescence. Expression and assembly of CX43 into plaques was assessed by immunofluorescence staining essentially as described in Rogers et al, 1990, which is incorporated herein by reference. Briefly, confluent cultures of 10T1/2 cells were grown on Permanox plastic 4-chamber slides (Nalge Nunc International, Naperville, Ill.) and treated for 4 days as described above. Cells were fixed with −20° C. methanol overnight, washed in buffer, blocked in 1% bovine serum albumin (Sigma, St. Louis, Mo.) in PBS, incubated with the rabbit anti-CX43 antibody, and visualized with Alexa568 conjugated anti-rabbit secondary antibody (Molecular Probes, Eugene, Oreg.). Images were acquired with a Zeiss Axioplan microscope and a Roper Scientific cooled CCD camera.

[7] = 0.1 mM in 40% EtOH, sodium salt

In the case of “3,3′-Diphosphoryloxy-β,ε-carotene sodium salt [Lutein Diphosphate Sodium Salt]”, the “Mean (% inhibition) of superoxide anion signal” value (from here on “Mean (% inhibition)”) ([1]; 0.1 mM in 40% EtOH, listed as disodium diphosphate derivative of natural source lutein, sodium salt) is reported as 18%, the “Mean (% inhibition)” value [1, 7] is reported as 18.0% and the “Mean (% inhibition)” value ([1]; 0.1 mM in water, listed as disodium diphosphate derivative of natural source lutein, sodium salt) is reported as 0%. For the same molecule, the “Mean (% inhibition)” value ([1]; 1.0 mM in water) was 9.3%, the “Mean (% inhibition)” value ([1]; 3.0 mM in water) was 72.3% and the “Mean (% inhibition)” value ([1]; 5.0 mM in water, listed as disodium diphosphate derivative of natural source lutein, sodium salt) was “more than 90%”. The “Mean (% inhibition)” value ([1]; 5.0 mM in water, sodium salt) was 91.0%.

For `CC1=C(/C=C/C(C)=C/C=C/C(C)=C/C=C/C=C(C)/C=C/C=C(C)/C=C/C2=C(C)C(=O)[C@@H](O)CC2(C)C)C(C)(C)C[C@H](O)C1=O` [AST, astaxanthin, reference compound], the neoplastic transformation ([2]; 10^−5 M for 4 weeks) was “strongly inhibited”, the “% Inhibition of MCA-induced transformation” value ([2]; 10^−6 M) was 41% and the “Foci/dish (mean Type II + Type III foci, 24 dishes)” value ([2]; 10^−6 M) was 0.96 foci/dish. For the same molecule, the “% Inhibition of MCA-induced transformation” value ([2]; 10^−7 M) was 39%, the “Foci/dish (mean Type II + Type III foci, 24 dishes)” value ([2]; 10^−7 M) was 1.00 foci/dish and the “% Inhibition of MCA-induced transformation” value ([2]; 10^−8 M) was 41%. The “Foci/dish (mean Type II + Type III foci, 24 dishes)” value ([2]; 10^−8 M) was 0.96 foci/dish, the foci/dish ([2]; all concentrations tested) was 0.98 foci/dish and the water dispersibility [3] was “insoluble in water”. For the same molecule, the GJIC dye transfer ([4]; 10^−6 M) was “below that observed in untreated control cultures”, the GJIC dye transfer ([4]; 10^−7 M) was “roughly equivalent to that achieved in cultures treated with pAST” and the “CX43 protein induction versus solvent-treated controls” value ([5]; 10^−5 M) was “no change”. For the same molecule, the “CX43 protein induction versus solvent-treated controls” value ([5]; 10^−6 M) was “No change”, the “CX43 protein induction versus solvent-treated controls” value ([5]; 10^−7 M) was “No change” and the “CX43 immunoreactive plaques at regions of cell/cell apposition” value ([6]; 10^−6 M) was “few immunoreactive plaques”. The “CX43 immunoreactive plaques / gap junction assembly” value [6] was “comparable to untreated cultures”.

With `CC1=C(/C=C/C(C)=C/C=C/C(C)=C/C=C/C=C(C)/C=C/C=C(C)/C=C/C2=C(C)C(=O)CCC2(C)C)C(C)(C)CCC1=O` [CTX, Canthaxanthin] the “increase of dye transfer” value ([4]; 10^−5 M) was 4 fold, the “CX43 protein induction versus solvent-treated controls” value ([5]; 10^−5 M) was “≈ 7 fold” and the CX43 immunoreactive plaques ([6]; 10^−5 M) was “roughly equivalent to that achieved in cells treated with pAST at 10^−6 M”.

In the case of `C/C(=C\c1ccc(C(=O)O)cc1)c1ccc2c(c1)C(C)(C)CCC2(C)C` [TTNPB, tetrahydrotetramethylnaphalenylpropenyl benzoic acid], the “increase of dye transfer” value ([4]; 10^−8 M) is reported as 6 fold, the “CX43 protein induction versus solvent-treated controls” value ([5]; 10^−8 M) is reported as “about 13 fold” and the “CX43 immunoreactive plaques / gap junction assembly” value [6] is reported as “extensive CX43 immunoreactive plaques”.

In the case of “β,ε-carotenyl 3,3′-disuccinate sodium salt [Lutein Disuccinate Sodium Salt]”, the aqueous solubility/dispersibility [3] is reported as 2850 µg/mL, the “Mean (% inhibition)” value ([1]; 0.1 mM in 40% EtOH, listed as disodium disuccinate derivative of natural source lutein, sodium salt) is reported as “did not significantly increase scavenging over that provided by the EtOH vehicle alone” and the “Mean (% inhibition)” value [1, 7] is reported as 5.0%. The “Mean (% inhibition)” value ([1]; 0.1 mM in water) was 0%, the “Mean (% inhibition)” value ([1]; 1.0 mM in water) was 13.0% and the “Mean (% inhibition)” value ([1]; 3.0 mM in water) was 61.7%. For the same molecule, the “Mean (% inhibition)” value ([1]; 5.0 mM in water, listed as disodium disuccinate derivative of natural source lutein, sodium salt) was ~75%, the “Mean (% inhibition)” value ([1]; 5.0 mM in water, listed as disuccinate lutein sodium salt, sodium salt) was 75% and the “Mean (% inhibition)” value ([1]; 5.0 mM in water, sodium salt) was 74.7%.
